Laboratory results as given in patent publication US11999727B2 (Tango Therapeutics, Inc., priority 2020, dated 2024).
pIC50: −log10 of the molar value.

How the values were obtained:
PRMT5 [1] = biological target: T1, PRMT5 (Homo sapiens, UniProt O14744); assay: PRMT5 biochemical IC50 assay with SAM as cofactor; conditions: PRMT5, SAM as cofactor; read-out: SAM IC50
T1 construct: purchased Viva (custom protein)

PRMT5 [2] = biological target: T1, PRMT5; assay: PRMT5 biochemical IC50 assay with MTA as cofactor; conditions: PRMT5, MTA as cofactor; read-out: MTA IC50
[3] = tested on: HAP1 MTAP-deleted cell line; assay: SDMA in-cell western assay, HAP1 MTAP-deleted; format: cell-based; conditions: for pIC50: Homo sapiens, HAP1, SDMA in-cell western, HAP1 MTAP-deleted, read-out: HAP1 MTAP deleted IC50; for MTAP intact/deleted ratio: IC50 ratio HAP1 MTAP-intact / HAP1 MTAP-deleted, SDMA in-cell western
Procedure, shortened: (§1)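 MTAP-null vs endogenous-MTAP HAP1 isogenic cells; in-cell western SDMA readout; IC50 per line.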

[4] = tested on: HAP1 MTAP-intact cell line; assay: SDMA in-cell western assay, HAP1 MTAP-intact; format: cell-based; conditions: Homo sapiens, HAP1, SDMA in-cell western, HAP1 MTAP-intact; read-out: MTAP HAP1 intact IC50
Procedure, shortened: as §1

[5] = tested on: HAP1 MTAP-deleted cell line; assay: Viability assay, MTAP-deleted cell line; format: cell-based; conditions: Homo sapiens, HAP1, viability assay, MTAP-deleted cell line; read-out: HAP1 MTAP deleted viability
From the text: Table 1 additionally indicates IC50 values in a viability assay for the MTAP-deleted cell line (column 10), indicating the effect of treatment with compound on cell survival.

PRMT5 [6] = biological target: T1, PRMT5; assay: PRMT5 biochemical IC50 assay with no cofactor; conditions: PRMT5, no cofactor; read-out: No Cofactor/rel IC50
From the text: Table 1 indicates IC50 values (μM) against PRMT5 for exemplary compounds in the presence of SAM as cofactor, with no cofactor, and with MTA as cofactor, respectively (columns 4-6). […] Ki values can be calculated from the IC50 values as described in the Examples section. As detailed in the Examples section, for the assay performed in the presence of SAM, IC50=Ki×1.5 (Ki=IC50/1.5).

T1 sequence (O14744 whole entry): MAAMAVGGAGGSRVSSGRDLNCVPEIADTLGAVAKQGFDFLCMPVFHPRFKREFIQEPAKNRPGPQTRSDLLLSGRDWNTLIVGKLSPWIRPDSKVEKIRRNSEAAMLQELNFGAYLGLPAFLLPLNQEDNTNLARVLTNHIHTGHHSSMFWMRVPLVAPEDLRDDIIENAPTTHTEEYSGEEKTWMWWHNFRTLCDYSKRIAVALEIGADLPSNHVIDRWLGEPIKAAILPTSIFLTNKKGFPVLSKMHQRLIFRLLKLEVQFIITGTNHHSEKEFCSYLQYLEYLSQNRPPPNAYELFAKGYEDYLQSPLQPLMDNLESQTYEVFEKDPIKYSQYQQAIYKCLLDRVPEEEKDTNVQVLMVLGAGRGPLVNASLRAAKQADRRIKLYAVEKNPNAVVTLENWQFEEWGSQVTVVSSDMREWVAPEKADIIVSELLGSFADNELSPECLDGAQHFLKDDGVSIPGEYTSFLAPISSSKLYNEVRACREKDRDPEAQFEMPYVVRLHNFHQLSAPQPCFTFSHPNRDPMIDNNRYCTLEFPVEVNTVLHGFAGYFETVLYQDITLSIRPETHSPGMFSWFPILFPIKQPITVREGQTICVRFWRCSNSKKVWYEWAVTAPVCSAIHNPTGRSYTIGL
T1 sequence (Q9BQA1 whole entry partner): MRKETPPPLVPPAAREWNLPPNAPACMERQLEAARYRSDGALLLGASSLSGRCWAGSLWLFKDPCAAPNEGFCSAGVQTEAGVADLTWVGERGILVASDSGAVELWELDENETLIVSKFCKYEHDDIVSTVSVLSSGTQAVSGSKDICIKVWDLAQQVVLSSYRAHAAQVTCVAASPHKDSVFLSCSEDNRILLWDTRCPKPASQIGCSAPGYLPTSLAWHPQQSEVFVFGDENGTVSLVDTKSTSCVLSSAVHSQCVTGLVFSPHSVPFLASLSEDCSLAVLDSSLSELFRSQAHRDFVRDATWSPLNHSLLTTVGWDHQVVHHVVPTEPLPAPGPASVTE

SMILES | pIC50 (PRMT5 [1]) | pIC50 (PRMT5 [2]) | pIC50 [3] | MTAP intact/deleted ratio [3] | pIC50 [4] | pIC50 [5] | pIC50 (PRMT5 [6])
Cc1cc(NC(=O)C(=O)N2C[C@H](C(F)(F)F)CC[C@H]2c2ccccc2)cnc1N (racemic) [Compound 177, rac-N-(6-amino-5-methylpyridin-3-yl)-2-oxo-2-((2R,5S)-2-phenyl-5-(trifluoromethyl)piperidin-1-yl)acetamide] | 6.30 to 7.30 | 6.30 to 7.30 | < 6.00 | B (an IC50 ratio greater than or equal to 3 fold but lower than 10 fold) | < 6.00 | < 5.00 | 6.30 to 7.30
Cc1ccc([C@@H]2CC[C@@H](C)CN2C(=O)C(=O)Nc2cncc(C(N)=O)c2)cc1Cl (racemic) [Compound 179, rac-5-{2-[(2R,5S)-2-(3-Chloro-4-methylphenyl)-5-methylpiperidin-1-yl]-2-oxoacetamido}pyridine-3-carboxamide] | 6.30 to 7.30 | > 7.30 | > 7.00 | A (an IC50 ratio greater than or equal to 10 fold) | < 6.00 | 5.00 to 6.00 | 6.30 to 7.30
Cc1ccc([C@@H]2CC[C@@H](C)CN2C(=O)C(=O)Nc2cncc(C(N)=O)c2)cc1C (racemic) [Compound 180, rac-5-{2-[(2R,5S)-2-(3,4-Dimethylphenyl)-5-methylpiperidin-1-yl]-2-oxoacetamido}pyridine-3-carboxamide] | 6.30 to 7.30 | > 7.30 | 6.00 to 7.00 | A (an IC50 ratio greater than or equal to 10 fold) | < 6.00 | 5.00 to 6.00 | 6.30 to 7.30
C[C@@H]1CC[C@@H](c2ccccc2)N(C(=O)C(=O)Nc2cncc(C(N)=O)c2)[C@H]1C (racemic) [Compound 181, rac-5-[[2-[(2S,3R,6S)-2,3-dimethyl-6-phenyl-1-piperidyl]-2-oxo-acetyl]amino]pyridine-3-carboxamide] | 6.30 to 7.30 | > 7.30 | 6.00 to 7.00 | A (an IC50 ratio greater than or equal to 10 fold) | < 6.00 | 5.00 to 6.00 | 6.30 to 7.30
NC(=O)c1cncc(NC(=O)C(=O)N2CC[C@@H](O)C[C@H]2c2ccccc2)c1 (racemic) [Compound 185, 5-(2-(4-hydroxy-2-phenylpiperidin-1-yl)-2-oxoacetamido)nicotinamide] | 6.30 to 7.30 | 6.30 to 7.30 | < 6.00 | C (an IC50 ratio of less than 3 fold) | < 6.00 | < 5.00 | < 6.30
Cc1cc(NC(=O)C(=O)N2C[C@@H](C)CC[C@@H]2c2cccc(O)c2)cnc1N (racemic) [Compound 187, rac-N-(6-amino-5-methylpyridin-3-yl)-2-((2R,5S)-2-(3-hydroxyphenyl)-5-methylpiperidin-1-yl)-2-oxoacetamide] | 6.30 to 7.30 | > 7.30 | > 7.00 | A (an IC50 ratio greater than or equal to 10 fold) | 6.00 to 7.00 | 5.00 to 6.00 | 6.30 to 7.30
Cc1cc(NC(=O)C(=O)N2C[C@H](C)CC[C@H]2C2CCCC2)cnc1N (racemic) [Compound 190, N-(6-amino-5-methyl-3-pyridyl)-2-[(2S,5R)-2-cyclopentyl-5-methyl-1-piperidyl]-2-oxo-acetamide] | 6.30 to 7.30 | > 7.30 | 6.00 to 7.00 | B (an IC50 ratio greater than or equal to 3 fold but lower than 10 fold) | < 6.00 | 5.00 to 6.00 | 6.30 to 7.30
C[C@@H]1CC[C@@H](c2cc(Cl)cc(Cl)c2)N(C(=O)C(=O)Nc2cncc(C(N)=O)c2)C1 (racemic) [Compound 206, rac-5-{2-[(2R,5S)-2-(3,5-Dichlorophenyl)-5-methylpiperidin-1-yl]-2-oxoacetamido}pyridine-3-carboxamide] | 6.30 to 7.30 | > 7.30 | 6.00 to 7.00 | A (an IC50 ratio greater than or equal to 10 fold) | < 6.00 | 5.00 to 6.00 | 6.30 to 7.30
